Laboratory results: paper PMC5004841, “Development of a rapid phenotypic test for HCV protease inhibitors with potential use in clinical decisions” (Genetics and Molecular Biology, 2016)

Legend:
[1] = biological target: T1, HCV genotype 1b NS3-4A protease WT (Hepatitis C virus genotype 1b, UniProt Q9WMX2); assay: FRET enzyme inhibition assay, NS3 WT (SensoLyte 520 HCV protease assay Kit); type: biochemical, hepatitis C virus (HCV) genotype 1b
T1 construct: covalently joined to the NS3 protease domain (aa 1-182) via an amino acid linker GSGS; 6x histidine tag (N); TEV protease cleavage site (N); NS4A central peptide (NS4A aa 21-32), fused N-terminally of NS3; made in house; host or cells: E. coli BL21 (λDE3)
Source text: (§1) The HCV genotype 1b NS3-4A protease domain from the plasmid pFKI389 Luc-ubi-neo/NS3-3'/ET (kindly provided by Dr. Ralf Bartenschlager) was amplified with the antisense primer 5'-[…]-3'containing a BamHI enzyme restriction site and the sense primer 5'-[…]-3' containing a HindIII enzyme restriction site. This fragment was cloned into a pET21dhis-TEV bacterial expression vector (a pET21d plasmid, which was modified to codify a 6x histidine tag followed by a cleavage site recognized by the Tobacco Etch virus nTev protease at the protein N-terminus). The single chain NS3-4A protease contains the protease domain (182 amino acids) and a 20-aa portion of the cofactor NS4A ([Abrahim-Vieira et al., 2014]).
Protein expressions were carried out as described previously with some modifications to simplify techniques and to perform the protocol in a smaller inoculum volume ([Abrahim-Vieira et al., 2014]). Transformed BL21 (λDE3) cells were grown at 37°C in 500 mL of LB medium containing […] ampicilin until an OD600 of 0.6-0.8 was reached. Then, cultures were induced with 0.5 mM isopropyl-1-thio-β-D-galactopyranoside (IPTG) and incubated with shaking at 25 °C for 4 h. Cells expressing NS3-4A constructs were harvested by centrifugation and stored at −80 °C. […] Purified NS3-4A constructs were quantified with Micro BCA Protein Assay Kit (Thermo Scientific). […]

[2] = test system: HCV NS3-4A protease T54A; conditions: mutant T54A vs NS3 WT
Source text: as §1
(§2) Protein expressions were carried out as described previously with some modifications to simplify techniques and to perform the protocol in a smaller inoculum volume ([Abrahim-Vieira et al., 2014]). Transformed BL21 (λDE3) cells were grown at 37°C in 500 mL of LB medium containing […] ampicilin until an OD600 of 0.6-0.8 was reached. Then, cultures were induced with 0.5 mM isopropyl-1-thio-β-D-galactopyranoside (IPTG) and incubated with shaking at 25 °C for 4 h. Cells expressing NS3-4A constructs were harvested by centrifugation and stored at −80 °C. All resuspension steps were performed at 4 °C. Frozen pellets were resuspended in 12.5 mL of buffer A (Tris-HCl 50 mM pH 7.5; NaCl 300 mM; 2 mM β-mercaptoethanol; 10% glycerol; 0.5% Triton X-100). After resuspension, lysates were treated with lysozyme (5 mg/mL) for 1 h with stirring, subjected to 20 cycles of 15 s of sonication and 30 s of resting. Lysates were cleared by centrifugation at 12.000 g for 30 min and the supernatant filtered with 0.22 μM filter units (Nalgene). After filtration, supernatants were applied in 2 mL of Ni-NTA Agarose (Life Technologies) previously washed with distilled water and equilibrated with buffer A. Agarose resin was washed three times with buffer A and recombinant proteins were eluted with buffer A with 125, 250 and 500 mM imidazol (buffer B). […] Fractions were pooled and dialyzed overnight against buffer A with SnakeSkin Dialysis Tubing 10K MWCO (Thermo Scientific). Purified NS3-4A constructs were quantified with Micro BCA Protein Assay Kit (Thermo Scientific).
(§3) All enzyme inhibition assays were performed in nonbinding black surface 96-well plates (Corning).

[3] = test system: HCV NS3-4A protease T54S + V170I; conditions: mutant T54S + V170I vs NS3 WT
Source text: as §1, §2, §3

[4] = test system: HCV NS3-4A protease V158I; conditions: mutant V158I vs NS3 WT
Source text: as §1, §2, §3

[5] = test system: HCV NS3-4A protease V170I; conditions: mutant V170I vs NS3 WT
Source text: as §1, §2, §3

[6] = test system: HCV NS3-4A protease V36M; conditions: mutant V36M vs NS3 WT
Source text: as §1, §2, §3

T1 sequence (Q9WMX2 1027-1208 limits assumed): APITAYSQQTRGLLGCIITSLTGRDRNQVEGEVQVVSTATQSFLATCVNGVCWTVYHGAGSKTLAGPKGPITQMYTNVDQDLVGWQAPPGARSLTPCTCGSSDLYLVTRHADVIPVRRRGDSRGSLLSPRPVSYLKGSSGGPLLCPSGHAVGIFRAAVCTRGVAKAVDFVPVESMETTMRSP

Row | SMILES | IC50 [1] | fold change (mutant IC50 median/WT IC50 median) [2] | fold change (mutant IC50 median/WT IC50 median) [3] | fold change (mutant IC50 median/WT IC50 median) [4] | fold change (mutant IC50 median/WT IC50 median) [5] | fold change (mutant IC50 median/WT IC50 median) [6]
1 | COc1ccc2c(O[C@@H]3C[C@H]4C(=O)N[C@]5(C(=O)NS(=O)(=O)C6CC6)C[C@H]5/C=C\CCCCN(C)C(=O)[C@@H]4C3)cc(-c3nc(C(C)C)cs3)nc2c1C [Simeprevir] | 0.017 µM | 6.3 fold | 3.8 fold | 0.1 fold | 3.2 fold | 0.4 fold
2 | CCC[C@H](NC(=O)[C@@H]1[C@H]2CCC[C@H]2CN1C(=O)[C@@H](NC(=O)[C@@H](NC(=O)c1cnccn1)C1CCCCC1)C(C)(C)C)C(=O)C(=O)NC1CC1 [Telaprevir] | 0.13 µM |  |  |  |  | 
